{"source": "patent US20110105611A1", "about": "“USE OF MASLINIC ACID FOR THE TREATMENT OF P[…] THEIR SYMPTOMS THROUGH THE INHIBITION OF COX-2” (Biomaslinic S.L., priority 2008, published 2011)", "key": {"tumor cell lines": {"system": "tumor cell lines", "test": "Apoptosis induction in tumor cell lines (concentration comparison)", "format": "cell-based"}, "COX-2 [1]": {"system": "COX-2", "test": "COX-2 enzymatic activity in LPS-induced monocytes (conversion of arachidonic acid to PGE2)", "format": "cell-based, human", "settings": "monocytes LPS 24 hours, MA 15 minutes, arachidonic acid 15 μM 15 minutes", "description": "In order to determine COX-2 activity, the cells were LPS-stimulated first (10 ng/ml) for 24 hours to induce the cellular expression of the COX-2 protein. After that time the cultures were washed and a new free of serum culture medium, maslinic acid (different concentrations) and arachidonic acid (AA) were added for 15 minutes. During this time, the enzymatic activity of COX-2 was measured by its capacity to produce PGE2 from the AA included in the culture.\nVis-à-vis the possibility of MA acting as inhibitor of COX-2 activity, we induced the expression of COX-2 through the treatment of monocytes with LPS for 24 hours. After this time, the cells were washed three times with a medium without serum and incubated for 15 minutes with growing doses of MA. After this time, arachidonic acid was added to the cultures (15 μM) for other 15 minutes and the conversion to PGE2 was measured by EIA."}, "[2]": {"system": "LPS-stimulated murine peritoneal macrophages", "settings": "cited from earlier work"}, "[3]": {"system": "PGE2 production in primary astrocytes", "test": "PGE2 production in primary rat astrocytes", "format": "cell-based", "excerpt": "(§1) 2. Cell Cultures • Isolation and culture of primary monocytes of peripheral blood. Peripheral blood mononuclear cells (PBMC) coming from healthy adults volunteer donors were isolated by venous blood centrifugation through density gradient with Ficoll-Hypaque. The monocytes were separated through adherence to plastic and later cultured in 24-well plates at a density of 50,000 cells/ml for the enzyme immunoassay (EIA) experiments and in 6-well plates for the immunoblot assays. • Culture of human primary chondrocytes. Chondrocytes were bought from Promocell (Heidelberg, Germany) and cultured in medium conditioned for this type of cells. The cells were cultured in 24-well plates for the determination of PGE2 and IL-6. • Culture of rat primary astrocytes. The astrocyte primary cultures were prepared from neonatal rat brains (1 day old). […] The cultures were expanded in 6-well plates and the production of PGE2 measured in cells after the 3 or 4 pass. • Culture of cell lines. […]\n(§2) Chondrocyte, monocyte and astrocyte cultures were stimulated with the corresponding activators (IL-1, LPS or PMA plus lonomicine) in presence or absence of several concentrations of maslinic acid during the indicated times. […] PGE2 was determined using the EIA system of Assay Designs (catalogue number 901-001) following the manufacturer instructions."}, "[4]": {"system": "mononuclear cells of human peripheral blood", "settings": "cited from earlier work"}, "promoter of IL-6": {"system": "promoter of IL-6", "test": "IL-6 promoter luciferase assay in transfected SK-N-SH cells", "format": "cell-based, human", "settings": "listed as MA", "excerpt": "as §1\n(§3) SK—N—SH cells were transfected with the plasmids COX-2-Luc and IL-6-Luc using the JetPei reagent (Polyplus transfection, France) according to the manufacturer instructions. […] The luciferase activity in the protein extract was determined through the use of the luminometer Autolumat LB9510 (Berthold) following the system instructions of Luciferase assay from Promega (Madison, Wis., USA). […]"}, "[5]": {"system": "8-iso-PGF2α production in human monocytes", "test": "Isoprostane (8-iso-PGF2α) release in LPS-stimulated human monocytes (EIA)", "format": "cell-based", "settings": "for release of 8-iso-PGF2α (isoprostanes): human monocytes of peripheral blood after LPS stimulation", "excerpt": "(§4) 2. Cell Cultures • Isolation and culture of primary monocytes of peripheral blood. Peripheral blood mononuclear cells (PBMC) coming from healthy adults volunteer donors were isolated by venous blood centrifugation through density gradient with Ficoll-Hypaque. The monocytes were separated through adherence to plastic and later cultured in 24-well plates at a density of 50,000 cells/ml for the enzyme immunoassay (EIA) experiments and in 6-well plates for the immunoblot assays. • Culture of human primary chondrocytes. Chondrocytes were bought from Promocell (Heidelberg, Germany) and cultured in medium conditioned for this type of cells. The cells were cultured in 24-well plates for the determination of PGE2 and IL-6. • Culture of rat primary astrocytes. The astrocyte primary cultures were prepared from neonatal rat brains (1 day old). The upper part of the brain was opened and the meninges carefully separated to avoid contamination of the cultures with fibroblasts. The cerebral cortex was isolated and a cellular suspension was obtained, which was cultured in DMEM conditioned for the astrocyte culture. The cultures were expanded in 6-well plates and the production of PGE2 measured in cells after the 3 or 4 pass. • Culture of cell lines. SK—N—SH (American Tissue Culture collection, HTB 11) is a cell line derived from a human neuroblastoma and an exponential growth in DMEM supplemented by 2 mmol/l L-glutamine, antibiotics and 10% FCS. The cells were cultured at 37° C. and in an atmosphere at 5% CO2.\n(§5) Monocyte cultures were stimulated in the same way as for the production of PGE2 (LPS stimulation for 24 hours) and the amount of 8-iso-prostaglandine F2α (isoprostanes) or IL-6 released by the cells was determined respectively through the systems EIA from Cayman (USA) (catalogue number 516351) or from Pelikine (catalogue number RDI-M1916clb) following the manufacturer instructions.\nIsoprostanes such as endoperoxide 8-iso-prostaglandin F2α (8-iso-PGF2α) are metabolites of the oxidation of arachidonic acid and nowadays it is considered one of the best markers of oxidative stress. […]"}, "[6]": {"system": "IL-6 production in human monocytes", "test": "IL-6 production in LPS-stimulated human monocytes (EIA)", "format": "cell-based", "excerpt": "as §1, §5"}, "[7]": {"system": "PGE2 production in SK-N-SH cells", "test": "PGE2 production in SK-N-SH neuroblastoma cell line", "format": "cell-based, human", "excerpt": "as §1, §2"}, "[8]": {"system": "TNFα production in primary monocytes", "test": "TNFα production in primary monocytes", "format": "cell-based"}, "[9]": {"system": "PGE2 production in human chondrocytes", "test": "PGE2 release in primary human chondrocytes stimulated with IL-1", "format": "cell-based", "settings": "IL-1 10 U/ml; for release of PGE2 induced by IL-1, higher doses: MA 25 and 50 μg/ml", "excerpt": "as §4, §2\n(§6) In order to determine if the effect of MA on the production of PGE2 also occurred in another cell type involved in inflammatory phenomena the anti-inflammatory activity of maslinic acid on primary human chondrocytes was determined. […]"}, "[10]": {"system": "PGE2 production in human monocytes", "test": "PGE2 production in LPS-stimulated human monocytes of peripheral blood (EIA)", "format": "cell-based", "settings": "LPS-stimulated human monocytes from peripheral blood", "excerpt": "as §1\nas §2, with “instructions. […]” for “instructions.”"}, "T lymphocytes": {"system": "T lymphocytes", "test": "Activation and proliferation of T lymphocytes stimulated via TCR", "format": "cell-based"}, "[11]": {"system": "promoter of the COX-2 gene", "test": "COX-2 promoter luciferase assay in transfected SK-N-SH cells", "format": "cell-based, human", "settings": "PMA plus ionomycin 6 hours", "excerpt": "as §1, §3"}, "[12]": {"system": "IL-6 production in human chondrocytes", "test": "IL-6 production in primary human chondrocytes stimulated with IL-1", "format": "cell-based", "settings": "IL-1 10 U/ml, concentration dependent", "excerpt": "as §1, with “old). The upper part of the brain was opened and the meninges carefully separated to avoid contamination of the cultures with fibroblasts.” for “old).”\nas §6"}, "COX-2 [13]": {"system": "COX-2", "test": "COX-2 protein expression in LPS-stimulated monocytes (western blot)", "format": "cell-based, human", "settings": "growing doses of MA, 12 hours, listed as MA", "excerpt": "as §1, with “cells.” for “cells. The cells were cultured in 24-well plates for the determination of PGE2 and IL-6. • Culture of rat primary astrocytes. The astrocyte primary cultures were prepared from neonatal rat brains (1 day old).”\nThe cells (primary monocytes or SK—N—SH) were stimulated as indicated in each case and lysis solution in 50 μl (20 mM Hepes pH 8.0, 10 mM KCl, 0.15 mM EGTA, 0.15 mM EDTA, 0.5 mM Na3VO4, 5 mM NaF, 1 mM DTT, leupeptin 1 μg/ml, pepstatin 0.5 μg/ml, aprotinin 0.5 μg/ml, 1 mM PMSF y 0.5% NP-40). The protein concentration was determined through the Bradford reagent (Bio-Rad, Richmond, Calif., USA) and 30 μg of proteins were boiled in Laemmli solution and submitted to electrophoresis in gel of SDS/polyacrylamide at 10%. […]"}}, "note": "“Also recorded” adds a separate entry of the source. Where two headings read alike, the source gives them in different places."}
{"smiles": "CC1(C)CC[C@]2(C(=O)O)CC[C@]3(C)C(=CC[C@@H]4[C@@]5(C)C[C@@H](O)[C@H](O)C(C)(C)[C@@H]5CC[C@]43C)[C@@H]2C1", "note": "[maslinic acid, 2-alpha,3-beta-dihydroxyolean-12-en-28-oic acid]", "values": [{"measurement": "concentrations inhibiting innate and acquired immune responses versus those required to induce apoptosis in tumor cell lines", "setting": "tumor cell lines", "result": "noticeably lower"}, {"measurement": "enzymatic activity of COX-2 (conversion of arachidonic acid to PGE2, EIA)", "setting": "COX-2 [1]", "result": "inhibits the enzymatic activity of COX-2"}, {"measurement": "enzymatic activity of COX-2 (conversion of arachidonic acid to PGE2, EIA)", "setting": "COX-2 [1]; listed as MA", "result": "inhibited in a dose-depending manner the enzymatic activity of COX-2"}, {"measurement": "production of NO", "setting": "[2]", "result": "inhibits"}, {"measurement": "production of hydrogen peroxide (ROS)", "setting": "[2]", "result": "inhibits"}, {"measurement": "release of IL-6", "setting": "[2]", "result": "inhibits"}, {"measurement": "release of TNFα", "setting": "[2]", "result": "inhibits"}, {"measurement": "production of PGE2 in primary astrocytes", "setting": "[3]", "result": "Dual Effect"}, {"measurement": "inhibition of IL-6, TNFα, NO and hydrogen peroxide", "setting": "[4]", "result": "do not find"}, {"measurement": "transcriptional activity of the IL-6 promoter (luciferase), IL-1 stimulation", "setting": "promoter of IL-6; IL-1, 4 hours", "result": "is not produced by a transcriptional inhibition of the gene of IL-6; also recorded: does not inhibit the transcriptional activity of the IL-1 promoter"}, {"measurement": "transcriptional activity of the IL-6 promoter (luciferase), PMA plus ionomycin stimulation", "setting": "promoter of IL-6; PMA plus ionomycin, 4 hours", "result": "is not produced by a transcriptional inhibition of the gene of IL-6; also recorded: does not inhibit the transcriptional activity of the IL-1 promoter"}, {"measurement": "release of 8-iso-PGF2α (isoprostanes)", "setting": "[5]", "result": "inhibits the production of isoprostanes"}, {"measurement": "release of 8-iso-PGF2α (isoprostanes)", "setting": "[5]; listed as MA", "result": "inhibits in a concentration depending way the release of 8-iso-PGF2α"}, {"measurement": "inhibiting power on the production of isoprostanes compared with reference antioxidants", "setting": "[5]; primary monocytes, listed as MA", "result": "higher than that of tocopherol and trolox; also recorded: comparable to that of resveratrol"}, {"measurement": "IL-6 induced by LPS", "setting": "[6]", "result": "inhibits the production"}, {"measurement": "IL-6 induced by LPS", "setting": "[6]; listed as Maslinic acid", "result": "inhibits the production of IL-6"}, {"measurement": "production of PGE2 in SK-N-SH cell line (neuroblastoma)", "setting": "[7]; listed as Maslinic Acid", "result": "Dual Effect"}, {"measurement": "production of PGE2 in SK-N-SH cell line (neuroblastoma)", "setting": "[7]; listed as Maslinic acid", "result": "at high doses inhibits the production of PGE2"}, {"measurement": "production of TNFα", "setting": "[8]", "result": "inhibits the production"}, {"measurement": "production of PGE2 after stimulation with IL-1, low doses", "setting": "[9]; MA 0.1 and 1 μg/ml", "result": "an increase in the production of PGE2"}, {"measurement": "release of PGE2 induced by IL-1, higher doses", "setting": "[9]", "result": "at high doses inhibits the production of PGE2"}, {"measurement": "release of PGE2 induced by IL-1, higher doses", "setting": "[9]; listed as MA", "result": "a complete inhibition of the release of this prostaglandin"}, {"measurement": "production of PGE2", "setting": "[10]", "result": "inhibits the production; also recorded: inhibited the production of PGE2"}, {"measurement": "production of PGE2", "setting": "[10]; listed as Maslinic acid", "result": "inhibits the production of PGE2"}, {"measurement": "activation and proliferation of T lymphocytes", "setting": "T lymphocytes", "result": "inhibits the activation and proliferation of T lymphocytes"}, {"measurement": "transcriptional activity of the COX-2 gene (luciferase)", "setting": "[11]", "result": "does not inhibit the transcriptional activation of the gene promoter of COX-2"}, {"measurement": "transcriptional activity of the COX-2 gene (luciferase)", "setting": "[11]; listed as MA", "result": "did not affect the transcriptional activity of the COX-2 gene"}, {"measurement": "production of IL-6", "setting": "[12]", "result": "inhibits the production of IL-6"}, {"measurement": "production of IL-6", "setting": "[12]; listed as MA", "result": "completely inhibited"}, {"measurement": "expression of COX-2 induced by LPS (western blot)", "setting": "COX-2 [13]", "result": "did not inhibit the expression of COX-2"}]}
